# Experimental data taken from paper PMC5460201, “Bacterial protease uses distinct thermodynamic signatures for substrate recognition” (Scientific Reports, 2017).
# Peptide text beside a SMILES is read from it.
# B1: Porphyromonas endodontalis dipeptidyl peptidase 11, PeDPP11_(22-717) S652A (enzyme)
# chain: DGGMWLMQQINGQVARMKSLGMQLEAADIYNPNGSSLKDAVVMFDGGCTGVLVSNQGLLLTNHHCGYDQIQKHSSVQHNYLKDGFWSYSLAEELVNPGLEVEIVDEITDVTAAVKKELERIKKPSGLEFLSPRYLSSLAPEIVGKKAASRPGYRYEIKAFYGGNRYYMFTKKVFRDVRLVAAPPSSIGKFGSDTDNWAWPRHTGDFSIFRLYADKNGNPAEYSKDNVPYRPKRWVKVNAQGVKEGDFALIMGYPGTTYKFFTADEVTEWSEIDNNIRIEMRGILQDVMLREMLADPKINIMYAAKYASSQNGYKRAQGANWAIRRRSLREIKLAQQQEVLAWAKQKGIATTEEAVRAISKAIEGRQDLRMRQRYLLEGILMGIEMSNAPAADSDIADHWDDPARREAGLQSIRKQFEAFFNKDYSPEVEKDQLAIALLTRYAERIPAEKQPISIREGIAEYGSAKAYVEMIFDKSIYASRERFEEFMKNPDRDRLLRDPMSRFAASVAYEHQKLAKEVAAFDAPLAAAQRSYVASVLDMKGQPNLAPDANLTLRFTYGEIKGYQPRDVVTYGAKSTLEGVMEKEDPNNWEYVVDPKLKALYEAKNYGRYANSDGSMPVNFCATTHTTGGNAGSPVMNARGELIGLNFDRNWEGVGGDIEYLPNYQRSIILDIRYLLFIIDKFAGCQRLIDEIQPQF
# notes: also called PeDPP11_(altconf); source: E. coli BL21(DE3)pLysS, purified (HisTrap, SEC)
# What was measured:
# [1] = molecular target: Porphyromonas endodontalis dipeptidyl peptidase 11, PeDPP11_(22-717) S652A (Porphyromonas endodontalis) (UniProt F8WQK8); assay: ITC; peptide injected into PeDPP11 in the cell; 10 mM Hepes-NaOH pH 7.4, 100 mM NaCl; 25 °C; one-site binding model
# [2] = molecular target: T1, PeDPP11 (PeDPP11_22-717 S652A) (Porphyromonas endodontalis, UniProt F8WQK8, S652A); assay: Isothermal titration calorimetry (ITC) of peptide binding to PeDPP11
# T1 construct: genes encoding for C-terminal 6xHis-tagged PeDPP11_22-717 S652A and PgDPP11_22-720 S655A in the pET-22b(+) vector; 6xHis (C); made in house; host or cells: E. coli BL21(DE3)pLysS
# Protocol: All experiments were carried out in 10 mM Hepes-NaOH pH 7.4, 100 mM NaCl. Both the enzymes and the peptides were dissolved in the same buffer. The bindings were analysed with a MicroCal^TM iTC200 microcalorimeter (GE Healthcare, Life Sciences) equilibrated at the respective temperature. […] Every injection was carried out over a period of 4 s with a spacing of 110 s between the injections. […] These corrected values were plotted against the ratio peptide vs. protein concentration in the cell to generate the binding isotherm. Nonlinear least-squares fitting using Origin version 7.0 (Microcal) was used to obtain the association constants (K a), heats of binding (ΔH) and stoichiometries. […] The reported values are averages of at least two independent measurements.
# [3] = test system: cAMP-dependent protein kinase A (PKA-C); settings: NMR and molecular dynamics; ref [40]; cited from earlier work
# Source text: Due to experimental challenges, the role of conformational entropy in molecular recognition by proteins has begun to be elucidated only recently, mainly by nuclear magnetic resonance (NMR) relaxation methods. Using NMR techniques and molecular dynamics simulations, Veglia and colleagues observed in cAMP-dependent protein kinase A (PKA-C) a similar binding mode to that of DPP11. […] Conversely, binding of the inhibitor PKI5-24 (protein ki ...
# [4] = molecular target: the molecule itself; assay: SEC-MALS
molecule,measurement,setting,value
substrate peptide LDL,dH,[1],17 kJ/mol
dipeptide LD,dH,[1],-22 kJ/mol
Arg-Asp [RD],ΔH bind,"[2]; 25 °C, 10 mM Hepes-NaOH pH 7.4, 100 mM NaCl, 600 μM LDVW to 60 μM, 810 μM LD to 75 μM, 1 mM LDL to 75 μM, 1.0 mM RD to 80 μM PeDPP11, averages of at least two independent measurements",-15.5 kJ/mol
same,change in entropy on binding,"[2]; 25 °C, due to water displacement caused by peptide binding and concomitant domain motion",favourable change in entropy
same,thermodynamic signature of binding,"[2]; 25 °C, pH 7.4",enthalpy-driven process
PKI5-24,effect on PKA-C protein dynamics,[3],"stabilizes the protein, quenching the enzyme dynamics"
same,thermodynamic signature of binding to PKA-C,[3],enthalpically driven
substrate peptide Leu-Asp-Val-Trp,dH,[1],23.8 kJ/mol
"PLN1-20: substrate PLN1-20 (phospholamban) of PKA-C (MEKVQYLTRSAIRRASTIEM; UniProt P26678 1-20, looked up, fragment)",effect on PKA-C protein dynamics,[3],increased conformational dynamics
same,thermodynamic signature of binding to PKA-C,[3],entropically driven
CC(C)C[C@H](N)C(=O)N[C@@H](CC(=O)O)C(=O)O [LD] (H-Leu-Asp-OH),Kd,"[2]; 10 °C (283 K), 10 mM Hepes-NaOH pH 7.4, 100 mM NaCl, 1.28 mM LD to 120 μM PeDPP11, averages of at least two independent measurements",0.5 ± 0.1 µM
same,Kd,"[2]; 20 °C (293 K), 10 mM Hepes-NaOH pH 7.4, 100 mM NaCl, averages of at least two independent measurements",1 ± 0.3 µM
"CC(C)C[C@H](N)C(=O)N[C@@H](CC(=O)O)C(=O)N[C@H](C(=O)N[C@@H](Cc1c[nH]c2ccccc12)C(=O)O)C(C)C [LDVW, Leu-Asp-Val-Trp] (H-LDVW-OH)",Kd,"[2]; 15 °C (288 K), 10 mM Hepes-NaOH pH 7.4, 100 mM NaCl, averages of at least two independent measurements",9 ± 0.7 µM
dipeptide Arg-Asp,dH,[1],-15.5 kJ/mol
B1,stoichiometry N,[4],2
